Experimental data published in the supplement of paper PMC11061612.

How the values were obtained:
[1] = test system: HPAF-II (Pancreatic Carcinoma); experiment: combination Emax (second highest fraction inhibited in the dose matrix, 72 h); higher = more inhibition; extreme values may be limits of the assay
In short: (§1)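 Bliss excess equals the observed combination effect minus the expected value EA + EB − EA·EB, where EA and EB are the effects of each agent alone. Combination Emax is the second-highest inhibition within the matrix. Inhibition was scaled from CellTiter-Glo 2.0 luminescence, with 0 set by vehicle wells and 1 by blank wells, after 72 hours of two-drug dosing of cells plated in 1536-well plates.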

[2] = test system: SKG-IIIa (Cervical Carcinoma); experiment: Bliss excess, mean over the matrix (fraction); higher = more synergy
In short: as §1

[3] = test system: MOLP-8 (Plasma Cell Myeloma); experiment: as above
In short: as §1

UACC-257 (Melanoma) = experiment: as above
In short: as §1

[4] = test system: HT-1080 (Other Solid Carcinomas); experiment: as above
In short: as §1

[5] = test system: COR-L88 (Small Cell Lung Carcinoma); experiment: as above
In short: as §1

[6] = test system: MS-1 (Small Cell Lung Carcinoma); experiment: as above
In short: as §1

[7] = test system: NAMALWA (Burkitt's Lymphoma); experiment: as above
In short: as §1

[8] = test system: RCC-JW (Kidney Carcinoma); experiment: as above
In short: as §1

[9] = test system: KP-4 (Pancreatic Carcinoma); experiment: as above
In short: as §1

GAK (Melanoma) = experiment: as above
In short: as §1

[10] = test system: HPAF-II (Pancreatic Carcinoma); experiment: as above
In short: as §1

KALS-1 (Glioblastoma) = experiment: as above
In short: as §1

[11] = test system: C-33-A (Cervical Carcinoma); experiment: as above
In short: as §1

[12] = test system: P30-OHK (B-Lymphoblastic Leukemia); experiment: as above
In short: as §1

ES6 (Ewing's Sarcoma) = experiment: as above
In short: as §1

| SMILES | combination Emax [1] | Bliss excess [2] | Bliss excess [3] | Bliss excess (UACC-257 (Melanoma)) | Bliss excess [4] | Bliss excess [5] | Bliss excess [6] | Bliss excess [7] | Bliss excess [8] | Bliss excess [9] | Bliss excess (GAK (Melanoma)) | Bliss excess [10] | Bliss excess (KALS-1 (Glioblastoma)) | Bliss excess [11] | Bliss excess [12] | Bliss excess (ES6 (Ewing's Sarcoma)) |
| --- | --- | --- | --- | --- | --- | --- | --- | --- | --- | --- | --- | --- | --- | --- | --- | --- |
| NC1(C(=O)N[C@@H](CCO)c2ccc(Cl)cc2)CCN(c2ncnc3[nH]ccc23)CC1 [Capivasertib] + CC(C)n1c(=O)n(C)c2cnc3cc(F)c(-c4ccc(OCCCN5CCCCC5)nc4)cc3c21 [AZD1390] (first compound max 10 µM, 7x7, partner max 0.3 µM) | 0.245 | -0.104 | -0.0032 | -0.0358 | -0.0504 | -0.0746 | 0.0169 | 0.0005 | -0.0366 | -0.0546 | -0.0397 | -0.0016 | -0.054 | -0.0383 | -0.0289 | -0.0981 |
| NC1(C(=O)N[C@@H](CCO)c2ccc(Cl)cc2)CCN(c2ncnc3[nH]ccc23)CC1 [Capivasertib] + CCN(CCO)CCCOc1ccc2c(Nc3cc(CC(=O)Nc4cccc(F)c4)[nH]n3)ncnc2c1 [AZD2811] (first compound max 10 µM, 7x7, partner max 1 µM) | 0.218 | -0.035 | 0.0345 | 0.0028 | -0.0498 | -0.0738 | 0.0059 | 0.0887 | -0.0014 | -0.0379 | -0.0181 | 0.0052 | 0.0318 | 0.0297 | -0.044 | -0.0055 |
| NC1(C(=O)N[C@@H](CCO)c2ccc(Cl)cc2)CCN(c2ncnc3[nH]ccc23)CC1 [Capivasertib] + COc1nnc2ccc(N3CCC(c4ccc(OCCN5CCN(C)C(=O)[C@H]5C)cc4)CC3)nn12 [AZD5153] (first compound max 10 µM, 7x7, partner max 1 µM) | 0.389 | 0.0067 | 0.0092 | -0.0072 | -0.0558 | 0.0516 | -0.0737 | -0.0058 | 0.0516 | -0.0109 | -0.0323 | 0.0188 | -0.0749 | 0.0321 | 0.0358 | 0.0103 |
| NC1(C(=O)N[C@@H](CCO)c2ccc(Cl)cc2)CCN(c2ncnc3[nH]ccc23)CC1 [Capivasertib] + C[C@@H]1COCCN1C2=NC(=NC(=C2)C3(CC3)[S@](=N)(=O)C)C4=C5C=CNC5=NC=C4 [AZD6738] (first compound max 10 µM, 7x7, partner max 10 µM) | 0.5 | -0.0602 | 0.0357 | 0.0164 | -0.0473 | -0.0456 | -0.0465 | -0.0194 | -0.0713 | -0.0371 | -0.0552 | -0.0105 | -0.074 | -0.065 | 0.0468 | -0.0479 |
| NC1(C(=O)N[C@@H](CCO)c2ccc(Cl)cc2)CCN(c2ncnc3[nH]ccc23)CC1 [Capivasertib] + Cn1cnc2c(F)c(Nc3ccc(Br)cc3Cl)c(C(=O)NOCCO)cc21 [Selumetinib] (first compound max 10 µM, 7x7, partner max 10 µM) | 0.75 | -0.0066 | 0.121 | -0.0402 | 0.0159 | 0.0084 | -0.005 | -0.0231 | 0.0296 | 0.0084 | -0.0649 | 0.0623 | 0.0079 | 0.0513 | 0.0142 | -0.0397 |
| Cc1nc(Nc2ncc(C(=O)Nc3c(C)cccc3Cl)s2)cc(N2CCN(CCO)CC2)n1 [Dasatinib] + CC(=O)Nc1cccc(-n2c(=O)n(C3CC3)c(=O)c3c(Nc4ccc(I)cc4F)n(C)c(=O)c(C)c32)c1 [Trametinib] (first compound max 2 µM, 7x7, partner max 1 µM) | 0.928 | -0.026 | 0.0159 | -0.0926 | 0.0472 | -0.0239 | -0.0281 | -0.0039 | 0.0062 | 0.0558 | -0.0624 | 0.0843 | -0.0046 | 0.0559 | -0.0442 | -0.0495 |
| COc1cc2ncnc(Nc3ccc(F)c(Cl)c3)c2cc1OCCCN1CCOCC1 [Gefitinib] + CC(C)n1c(=O)n(C)c2cnc3cc(F)c(-c4ccc(OCCCN5CCCCC5)nc4)cc3c21 [AZD1390] (first compound max 10 µM, 7x7, partner max 0.3 µM) | 0.29 | -0.0991 | -0.0584 | -0.055 | -0.0548 | -0.0652 | -0.0252 | -0.0355 | -0.069 | -0.073 | -0.0656 | -0.066 | -0.0471 | -0.0656 | -0.0298 | -0.0574 |
| CS(=O)(=O)CCNCc1ccc(-c2ccc3ncnc(Nc4ccc(OCc5cccc(F)c5)c(Cl)c4)c3c2)o1 [Lapatinib] + C[C@@H](Oc1cc(-c2cnn(C3CCNCC3)c2)cnc1N)c1c(Cl)ccc(F)c1Cl [Crizotinib] (first compound max 10 µM, 7x7, partner max 10 µM) | 0.614 | -0.0438 | 0.012 | -0.0442 | -0.012 | -0.0234 | -0.0784 | -0.0528 | -0.0455 | -0.0775 | -0.0066 | 0.0211 | -0.0378 | -0.0373 | 0.0323 | -0.0437 |
